Read-outs that look alike come from different tables or passages of the source.
How the values were obtained:
[1] = molecular target: USP7 (Homo sapiens, UniProt Q93009); assay: Ub-Rho cleavage assay; format: biochemical
Experimental: All fluorescence measurements were performed on a Molecular Devices FlexStation3 with excitation at 480 nm and emission 540 nm, PMT Gain: Medium, Flash Number: 10. […] Assay buffer for all measurements was 50 mM HEPES, 100 mM NaCl, 0.5 mM EDTA, 1 mM TCEP, 0.1 mg/ml BSA, 0.01% Tween-20, pH 7.8. […] Serial dilutions were made with a Mosquito HTS (SPT Labtech) nanoliter liquid handler. 200 nL of each compound in duplicate or DMSO control were transferred to the assay plate. The first two columns served as positive controls. 9.8 μl per well of USP7 working solution was added to the assay plate. Compound+Protein was incubated for 25 min at 25° C. 10 uL of Ub-Rho substrate was added per well and incubated for an additional 15 min at 25° C. Fluorescence was then measured. Percent response relative to DMSO controls was calculated in GraphPad or Scinamic, and the data was fitted to a non-linear regression to determine IC50 values.

[2] = molecular target: T1, USP7 CD + UBL 1-5 (Homo sapiens, UniProt Q93009); assay: Surface plasmon resonance assay (SPR); format: binding
T1 construct: USP7 CD +
T1 sequence (Q93009 208-1102 limits assumed): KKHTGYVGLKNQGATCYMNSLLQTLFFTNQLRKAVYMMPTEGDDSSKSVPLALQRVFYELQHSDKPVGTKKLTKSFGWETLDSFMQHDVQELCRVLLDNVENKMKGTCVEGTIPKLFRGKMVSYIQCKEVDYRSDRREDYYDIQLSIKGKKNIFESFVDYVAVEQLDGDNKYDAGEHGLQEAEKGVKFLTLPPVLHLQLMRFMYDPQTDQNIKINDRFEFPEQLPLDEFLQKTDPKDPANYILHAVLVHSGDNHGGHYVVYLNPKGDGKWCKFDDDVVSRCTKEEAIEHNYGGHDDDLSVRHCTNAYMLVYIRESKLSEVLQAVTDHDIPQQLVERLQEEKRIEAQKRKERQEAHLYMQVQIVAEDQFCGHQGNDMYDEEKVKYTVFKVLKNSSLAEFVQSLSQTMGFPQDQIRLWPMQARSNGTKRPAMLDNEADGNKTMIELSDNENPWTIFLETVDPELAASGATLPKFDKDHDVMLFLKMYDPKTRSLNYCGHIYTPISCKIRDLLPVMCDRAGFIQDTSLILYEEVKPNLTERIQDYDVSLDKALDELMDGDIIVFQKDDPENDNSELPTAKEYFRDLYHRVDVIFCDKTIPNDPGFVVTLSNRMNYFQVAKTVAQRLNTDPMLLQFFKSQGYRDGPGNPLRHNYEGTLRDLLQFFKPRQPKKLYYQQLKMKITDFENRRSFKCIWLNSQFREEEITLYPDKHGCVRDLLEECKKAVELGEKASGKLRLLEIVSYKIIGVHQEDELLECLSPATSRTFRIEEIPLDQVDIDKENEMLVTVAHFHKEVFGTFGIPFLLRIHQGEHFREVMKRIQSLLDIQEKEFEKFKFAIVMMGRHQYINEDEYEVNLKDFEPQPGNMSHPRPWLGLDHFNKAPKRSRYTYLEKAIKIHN
Experimental: The surface plasmon resonance experiments were performed using a Cytiva (formerly GE Healthcare) Biacore 8K equipped with a Series S Sensor Chip SA. The ligands were immobilized via a biotin-modified biotin acceptor peptide. USP7 Ligands were diluted in running buffer (HBS-P+2% DMSO; 10 mM HEPES, pH 7.4, 150 mM NaCl, 1 mM DTT, 0.05% P20, 2% DMSO) to 100 μg/mL and injected at […] until a density between 500-10,000 RU was reached on flow-cell two of each channel, and flow cell one was left blank to serve as a reference surface. Both surfaces were washed until a stable baseline was achieved then 30 startup cycles to condition the surface. To collect kinetic and steady-state binding data, the small molecule analytes were prepared in three-fold dilution series in HBS-P+2% DMSO running buffer. Analytes were injected over both flow cells at a flow rate of […] at 25° C. The complex was allowed to associate for 60 seconds and dissociate for 300 seconds. Data were collected at 10 Hz. The data were fit to a simple 1:1 interaction model global data analysis within Cytiva Biacore Insight Evaluation Software.

[3] = Ub-Rho substrate, recombinant USP7, read-out: Ub (Rho) USP7.1 (IC50)
[4] = kinetic KD, read-out: SPR USP7 CD + UBL 1-5 (KD_kinetic)
[5] = steady-state KD, read-out: SPR USP7 CD + UBL 1-5 (KD_ss)

USP7, sequence (Q93009 whole entry): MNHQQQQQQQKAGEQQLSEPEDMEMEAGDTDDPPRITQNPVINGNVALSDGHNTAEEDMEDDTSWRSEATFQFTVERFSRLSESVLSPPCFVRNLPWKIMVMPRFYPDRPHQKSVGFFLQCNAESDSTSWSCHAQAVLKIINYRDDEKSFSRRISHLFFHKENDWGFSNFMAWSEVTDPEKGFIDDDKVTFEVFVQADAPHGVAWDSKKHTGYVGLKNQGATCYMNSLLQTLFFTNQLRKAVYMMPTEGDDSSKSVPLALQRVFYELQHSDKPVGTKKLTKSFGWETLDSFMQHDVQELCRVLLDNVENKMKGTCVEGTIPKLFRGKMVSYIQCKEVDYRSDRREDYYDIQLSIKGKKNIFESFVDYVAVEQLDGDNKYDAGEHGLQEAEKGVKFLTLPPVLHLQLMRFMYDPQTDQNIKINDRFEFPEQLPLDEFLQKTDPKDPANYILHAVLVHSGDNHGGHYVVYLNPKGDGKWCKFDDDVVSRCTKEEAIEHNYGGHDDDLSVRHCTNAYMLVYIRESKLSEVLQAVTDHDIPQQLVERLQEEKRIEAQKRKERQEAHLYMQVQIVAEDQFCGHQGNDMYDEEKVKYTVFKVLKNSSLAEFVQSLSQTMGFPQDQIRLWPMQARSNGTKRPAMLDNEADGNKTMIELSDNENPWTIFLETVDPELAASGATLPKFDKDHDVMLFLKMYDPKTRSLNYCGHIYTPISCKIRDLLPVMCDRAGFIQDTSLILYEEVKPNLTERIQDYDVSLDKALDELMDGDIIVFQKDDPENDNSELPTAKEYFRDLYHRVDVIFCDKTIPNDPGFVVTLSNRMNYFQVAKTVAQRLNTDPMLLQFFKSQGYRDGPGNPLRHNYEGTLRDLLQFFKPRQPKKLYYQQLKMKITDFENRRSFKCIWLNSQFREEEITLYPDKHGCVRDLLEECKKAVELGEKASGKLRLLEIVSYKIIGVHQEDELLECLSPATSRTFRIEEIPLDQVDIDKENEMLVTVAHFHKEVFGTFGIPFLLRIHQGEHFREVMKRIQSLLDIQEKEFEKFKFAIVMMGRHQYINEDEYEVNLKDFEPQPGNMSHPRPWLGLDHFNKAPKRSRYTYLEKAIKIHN

## C[C@H](CC(=O)N1CCC(O)(Cn2cnc3c(C#CCO)csc3c2=O)CC1)c1ccccc1 [U1]
[1]; [3]
  IC50: < 1000 nM
[2]; [4]
  Kd: < 1000 nM
[2]; [5]
  Kd: < 1000 nM

## C[C@H](CC(=O)N1CCC(O)(Cn2cnc3cc(Br)ccc3c2=O)CC1)c1ccccc1 [U3]
[1]; [3]
  IC50: 1000 to 100000 nM
[2]; [4]
  Kd: 1000 to 100000 nM
[2]; [5]
  Kd: 1000 to 100000 nM

## C[C@H](CC(=O)N1CCC(O)(Cn2cnc3cc(Cl)ccc3c2=O)CC1)c1ccccc1 [U4]
[1]; [3]
  IC50: 1000 to 100000 nM
[2]; [5]
  Kd: 1000 to 100000 nM

## C[C@H](CC(=O)N1CCC(O)(Cn2cnc3cc(N(C)CCN(C)CCCNC(=O)OC(C)(C)C)ccc3c2=O)CC1)c1ccccc1 [U5]
[1]; [3]
  IC50: < 1000 nM
[2]; [4]
  Kd: < 1000 nM
[2]; [5]
  Kd: < 1000 nM

## C[C@H](CC(=O)N1CCC(O)(Cn2cnc3cc(NCCN(C)CCCNC(=O)OC(C)(C)C)ccc3c2=O)CC1)c1ccccc1 [U6]
[1]; [3]
  IC50: < 1000 nM
[2]; [4]
  Kd: < 1000 nM
[2]; [5]
  Kd: < 1000 nM

## CCc1c(-c2ccc(C(=O)NCCCNC(=O)OC(C)(C)C)nc2)cnc(N)c1-c1ccc(O)cc1 [U7]
[1]; [3]
  IC50: 1000 to 100000 nM
[2]; [4]
  Kd: 1000 to 100000 nM
[2]; [5]
  Kd: 1000 to 100000 nM

## CCc1c(-c2ccc3[nH]ncc3c2)cnc(N)c1-c1ccc(O)cc1 [U8]
[1]; [3]
  IC50: 1000 to 100000 nM
[2]; [4]
  Kd: 1000 to 100000 nM
[2]; [5]
  Kd: 1000 to 100000 nM

## Cc1cc(Cl)cc(-c2ccnc3cc(CN4C(=O)CCC4=O)sc23)c1OC1CCN(CCCNC(=O)OC(C)(C)C)CC1 [U9]
[1]; [3]
  IC50: < 1000 nM
[2]; [4]
  Kd: < 1000 nM
[2]; [5]
  Kd: < 1000 nM

## CCc1c(-c2ccc(C(=O)NCCOCCOCCOCCN=[N+]=[N-])nc2)cnc(N)c1-c1ccc(O)cc1 [U10]
[1]; [3]
  IC50: 1000 to 100000 nM
[2]; [4]
  Kd: 1000 to 100000 nM
[2]; [5]
  Kd: 1000 to 100000 nM

## CCc1c(-c2ccc(C(=O)NC)cc2)cnc(N)c1-c1ccc(O)cc1 [U11]
[1]; [3]
  IC50: 1000 to 100000 nM
[2]; [5]
  Kd: 1000 to 100000 nM

## Cc1cc(Cl)cc(-c2ccnc3cc(CN4C(=O)CCC4=O)sc23)c1OC1CCN(C(=O)CCNC(=O)OC(C)(C)C)CC1 [U13]
[1]; [3]
  IC50: 1000 to 100000 nM
[2]; [5]
  Kd: 1000 to 100000 nM

## C[C@H](CC(=O)N1CCC(O)(Cn2cnc3c(-c4ccc(CNC(=O)OC(C)(C)C)cc4)n(C)nc3c2=O)CC1)c1ccccc1 [U14]
[1]; [3]
  IC50: < 1000 nM
[2]; [4]
  Kd: < 1000 nM
[2]; [5]
  Kd: < 1000 nM

## Cc1cc(Cl)cc(-c2ccnc3cc(CN4C(=O)CCC4=O)sc23)c1OC1CCN(C(=O)OC(C)(C)C)CC1 [U15]
[1]; [3]
  IC50: > 100000 nM
[2]; [4]
  Kd: 1000 to 100000 nM
[2]; [5]
  Kd: 1000 to 100000 nM

## Cc1cc(Cl)cc(-c2ccnc3cc(CN4C(=O)CCC4=O)sc23)c1OC1CCNCC1 [U16]
[1]; [3]
  IC50: < 1000 nM
[2]; [4]
  Kd: < 1000 nM
[2]; [5]
  Kd: < 1000 nM

## Cc1cc(Cl)cc(-c2ccnc3cc(CN4C(=O)CCC4=O)sc23)c1OC1CCN(C(=O)CN=[N+]=[N-])CC1 [U19]
[1]; [3]
  IC50: < 1000 nM
[2]; [5]
  Kd: < 1000 nM

## C[C@H](CC(=O)N1CCC(O)(CN2C=NC3C(C#CCOCCNC(=O)OC(C)(C)C)=CSC3C2=O)CC1)c1ccccc1 (stereo partly drawn) [U20]
[1]; [3]
  IC50: 1000 to 100000 nM
[2]; [5]
  Kd: 1000 to 100000 nM

## CCc1c(-c2ccc(OCCN)cc2)cnc(N)c1-c1ccc(O)cc1 [U21]
[1]; [3]
  IC50: 1000 to 100000 nM
[2]; [5]
  Kd: 1000 to 100000 nM

## Cc1cc(Cl)cc(-c2ccnc3cc(CN4C(=O)CCC4=O)sc23)c1CC1CCN(C(=O)CN)CC1 [U22]
[1]; [3]
  IC50: < 1000 nM
[2]; [5]
  Kd: < 1000 nM

## C[C@H](CC(=O)N1CCC(O)(Cn2cnc3c(C#CCO)n(C)nc3c2=O)CC1)c1ccccc1 [U23]
[1]; [3]
  IC50: < 1000 nM
[2]; [5]
  Kd: < 1000 nM

## Nc1ncc(-c2ccc(O)cc2)cc1-c1ccc(O)cc1 [U24]
[1]; [3]
  IC50: 1000 to 100000 nM
[2]; [5]
  Kd: 1000 to 100000 nM

## O=C(C[C@@H](C(F)F)n1ccc(F)n1)N1CCC(O)(Cn2cnc3c(cnn3-c3ccc(F)cc3)c2=O)CC1 [U25]
[1]
  IC50: < 1000 nM
[2]; SPR USP7 CD + UBL 1-5 (KD_ss) [nM], steady-state KD
  Kd: < 1000 nM

## O=C(CCc1ccccc1)N1CCC(O)(Cn2cnc3cc(Cl)ccc3c2=O)CC1 [U26]
[2]; [5]
  Kd: 1000 to 100000 nM

## C=CS(=O)(=O)Nc1ccccc1-c1ccc(C(=O)N2CCC(O)(Cn3cnc4c(cnn4C)c3=O)CC2)cc1 [U27]
[2]; [5]
  Kd: 1000 to 100000 nM

## C[C@H](CC(=O)C1CCC(O)(Cn2cnc3cc(C#CCN=[N+]=[N-])ccc3c2=O)CC1)c1ccccc1 (stereo partly drawn) [U28]
[1]; [3]
  IC50: 1000 to 100000 nM
[2]; [5]
  Kd: < 1000 nM

## C[C@H](CC(=O)N1CCC(O)(Cn2cnc3cc(C#CCN)ccc3c2=O)CC1)c1ccccc1 [U29]
[1]; [3]
  IC50: > 100000 nM
[2]; [5]
  Kd: < 1000 nM

## Cc1cc(Cl)cc(-c2ccnc3cc(CN4C(=O)CCC4=O)sc23)c1OC1CCN(CCCCCCCNC(=O)OC(C)(C)C)CC1 [U30]
[1]; [3]
  IC50: < 1000 nM
[2]; [4]
  Kd: < 1000 nM
[2]; [5]
  Kd: < 1000 nM

## Cc1cc(Cl)cc(-c2ccnc3cc(CN4C(=O)CCC4=O)sc23)c1OC1CCN(C(=O)CCCCCCCCNC(=O)OC(C)(C)C)CC1 [U31]
[1]; [3]
  IC50: > 100000 nM
[2]; [5]
  Kd: 1000 to 100000 nM

## Cc1cc(Cl)cc(-c2ccnc3cc(CN4C(=O)CCC4=O)sc23)c1OC1CCN(C(=O)CCOCCNC(=O)OC(C)(C)C)CC1 [U32]
[1]; [3]
  IC50: 1000 to 100000 nM
[2]; [5]
  Kd: 1000 to 100000 nM

## Cc1cc(Cl)cc(-c2ccnc3cc(CN4C(=O)CCC4=O)sc23)c1OC1CCN(C(=O)CCOCCOCCNC(=O)OC(C)(C)C)CC1 [U33]
[1]; [3]
  IC50: 1000 to 100000 nM
[2]; [5]
  Kd: 1000 to 100000 nM

## Cc1cc(Cl)cc(-c2ccnc3cc(CN4C(=O)CCC4=O)sc23)c1OC1CCN(C(=O)CCOCCOCCOCCNC(=O)OC(C)(C)C)CC1 [U34]
[1]; [3]
  IC50: 1000 to 100000 nM
[2]; [5]
  Kd: 1000 to 100000 nM

## C[C@H](CC(=O)N1CCC(O)(Cn2cnc3cc(NCCN4CCN(CCCNC(=O)OC(C)(C)C)CC4)ccc3c2=O)CC1)c1ccccc1 [U35]
[1]; [3]
  IC50: < 1000 nM
[2]; [5]
  Kd: < 1000 nM

## C[C@H](CC(=O)N1CCC(O)(Cn2cnc(NCCN3CCN(CCN)CC3)cc2=O)CC1)c1ccccc1 [U37]
[1]; [3]
  IC50: < 1000 nM
[2]; [5]
  Kd: < 1000 nM

## Cn1nc2c(=O)n(CC3(O)CCN(C(=O)C[C@H](c4ccccc4)C(F)(F)F)CC3)cnc2c1Br [U38]
[1]; [3]
  IC50: 1000 to 100000 nM
[2]; [5]
  Kd: 1000 to 100000 nM

## Cc1cc(Cl)cc(-c2ccnc3cc(CN4C(=O)CCC4=O)sc23)c1OC1CCN(CCCNC(=O)CCNC(=O)OC(C)(C)C)CC1 [U39]
[1]; [3]
  IC50: < 1000 nM
[2]; [5]
  Kd: < 1000 nM

## Cc1cc(Cl)cc(-c2ccnc3cc(CN4C(=O)CCC4=O)sc23)c1OC1CCN(CCCNC(=O)CCCCCCNC(=O)OC(C)(C)C)CC1 [U40]
[1]; [3]
  IC50: < 1000 nM
[2]; [5]
  Kd: < 1000 nM

## Cc1cc(Cl)cc(-c2ccnc3cc(CN4C(=O)CCC4=O)sc23)c1OC1CCN(CCCNC(=O)CCCCCCCNC(=O)OC(C)(C)C)CC1 [U41]
[1]; [3]
  IC50: < 1000 nM
[2]; [5]
  Kd: < 1000 nM

## CCc1c(-c2ccc(C(=O)NC)nc2)ccc(CNCCNC(=O)OC(C)(C)C)c1-c1ccc(O)cc1 [U43]
[1]; [3]
  IC50: 1000 to 100000 nM
[2]; [5]
  Kd: 1000 to 100000 nM

## CCc1c(-c2ccc(C(=O)NCCOCCOCCOCCNC(=O)OC(C)(C)C)nc2)ccc(N)c1C1=CC=C(O)CC1 [U44]
[1]; [3]
  IC50: 1000 to 100000 nM
[2]; [5]
  Kd: 1000 to 100000 nM

## CCc1c(-c2ccc(C(=O)NCCCNC(=O)CCCCNC(=O)OC(C)(C)C)nc2)cnc(N)c1-c1ccc(O)cc1 [U45]
[1]; [3]
  IC50: 1000 to 100000 nM
[2]; [5]
  Kd: 1000 to 100000 nM

## C[C@H](CC(=O)N1CCC(O)(Cn2cnc3cc(NC(=O)CCN4CCN(CCN=[N+]=[N-])CC4)ccc3c2=O)CC1)c1ccccc1 [U46]
[1]; [3]
  IC50: < 1000 nM
[2]; [5]
  Kd: < 1000 nM

## CCc1c(-c2ccc(C(=O)NC)nc2)cnc(CNC(=O)OC(C)(C)C)c1-c1ccc(O)cc1 [U47]
[1]; [3]
  IC50: 1000 to 100000 nM
[2]; [5]
  Kd: 1000 to 100000 nM

## CCc1c(-c2ccc(C(=O)NC)cc2)cnc(NC(=O)CN)c1-c1ccc(O)cc1 [U48]
[1]; [3]
  IC50: > 100000 nM
[2]; [5]
  Kd: 1000 to 100000 nM

## CCc1c(-c2ccc(C(=O)NCCCNC(=O)CCCCC(=O)OC(C)(C)C)nc2)cnc(N)c1-c1ccc(O)cc1 [U49]
[1]; [3]
  IC50: 1000 to 100000 nM
[2]; [5]
  Kd: 1000 to 100000 nM

Reference: patent US20240358842A1, “PROTEIN STABILIZING COMPOUNDS CONTAINING USP7 LIGANDS” (Stablix, Inc., priority 2021, published 2024)
